The values that follow come from publication PMC7914897, “Cytotoxic Potential of a-Azepano- and 3-Amino-3,4-SeCo-Triterpenoids” (International Journal of Molecular Sciences, 2021).

The term EC50 denotes the midpoint of the concentration-response curve. Usually GI50 stands for the concentration that inhibits growth by half.

For data set [1], the system named is A2780 (ovarian carcinoma). The data set is described as follows: SRB cytotoxicity assay, 72 h. It counts as cell-based, human. The following applies: Homo sapiens; A2780, 72 h, cut-off 30 µM; read-out: EC50. The protocol:
(§1) The cytotoxicity of compounds 1–20 was evaluated by means of a colorimetric sulforhodamine B (SRB) assay. For all compounds, the EC50 values were determined for the human tumor cell lines A375 (malignant melanoma), HT29 (colorectal carcinoma), MCF-7 (breast carcinoma), A2780 (ovarian carcinoma), FaDu (hypopharyngeal carcinoma), and NIH 3T3 (non-malignant mouse fibroblasts).
(§2) In short, exponentially growing cells were seeded into 96-well plates on day 0 at the appropriate cell densities to prevent confluence of the cells during the period of experiment. After 24 h, the cells were treated with serial dilutions of the compounds (0–30 µM) for 72 h. The final concentration of DMSO never exceeded 0.5%, which was non-toxic to the cells. After a 72 h treatment, the supernatant medium from the 96-well plates was discarded, and the cells were fixed with 10% TCA. For a thorough fixation, the plates were allowed to rest at 4 °C. After fixation, the cells were washed in a strip washer. The washing was done four times with water using alternate dispensing and aspiration procedures. The plates were then dyed with 100 µL of 0.4% SRB for about 20 min. After dying, the plates were washed with 1% acetic acid to remove the excess of the dye and allowed to air-dry overnight. Tris base solution (200 µL, 10 mM) was added to each well and absorbance was measured at λ = 570 nm (using a 96 well plate reader, Tecan Spectra, Crailsheim, Germany). The percentages of surviving cells relative to untreated controls were determined.
A general note: The SRB assay estimates cell density from bound dye.

For data set [2], the system named is FaDu (hypopharyngeal carcinoma). The data set is described as follows: SRB cytotoxicity assay, 72 h. The following applies: Homo sapiens, cut-off 30 µM, read-out: EC50. It counts as cell-based, human. The protocol: as §1, §2
In a further data set the test system is MCF-7 (breast carcinoma). Description: SRB cytotoxicity assay, 72 h. It counts as cell-based, human. The following applies: Homo sapiens, MCF7; MCF-7, 72 h, cut-off 30 µM; read-out: EC50. The procedure:
as §1, §2

Data set [3] deals with A375 (malignant melanoma). The data set is described as follows: SRB cytotoxicity assay, 72 h. In kind it is cell-based, human. Conditions: A375, 72 h, cut-off 30 µM, read-out: EC50. The procedure: as §1, §2
The subject of data set [4] is HT29 (colorectal carcinoma). Description: SRB cytotoxicity assay, 72 h. It counts as cell-based, human. The following applies: Homo sapiens, HT-29; HT29, 72 h, cut-off 30 µM; read-out: EC50. The protocol:
as §1, §2

In data set [5] the test system is NIH 3T3 (non-malignant mouse fibroblasts). Description: SRB cytotoxicity assay, 72 h. In kind it is cell-based. Conditions: Mus musculus, NIH3T3; NIH 3T3, 72 h, cut-off 30 µM; read-out: EC50. The procedure:
as §1, §2

The test system of another data set is HT29 (Colon cancer). The data set is described as follows: NCI-60 screen (SRB, 48 h). Conditions: HT29, 1 dose 10 µM.
Data set [6] concerns panel of approximately 60 cancer cell lines. Description: NCI-60 screen (SRB, 48 h), full panel. Conditions: for Positive Cytostatic Effect (cell lines with percent growth 0 to 50 / total) / number of cancer cell lines the compound was active against / Positive Cytotoxic Effect (cell lines with percent growth < 0 / total): 1 dose 10 µM; for activity at 10 µM: Homo sapiens, 48 h.

A further data set deals with SR (Leukemia). The data set is described as follows: NCI-60 screen (SRB, 48 h). In kind it is cell-based. Conditions: 1 dose 10 µM.
In the next data set the test system is COLO 205 (Colon cancer). The data set is described as follows: NCI-60 screen (SRB, 48 h). Conditions: COLO 205, 1 dose 10 µM.
In another data set the test system is HCC-2998 (Colon cancer). More on the design: method as in earlier work. Conditions: cited from earlier work.
Another data set deals with MALME-3M (Melanoma). More on the design: method as in earlier work. The following applies: cited from earlier work.
Data set [7] concerns NCI-H460 (NSC lung cancer). More on the design: method as in earlier work. The following applies: cited from earlier work.
A further data set deals with SF-539 (CNS cancer). More on the design: method as in earlier work. The following applies: cited from earlier work.
Data set [8] relates to panel of approximately 60 cancer cell lines. More on the design: method as in earlier work. The following applies: standard drugs; read-out: GI50 MG_MID60; cited from earlier work.
Data set [9] relates to NCI-H522 (NSC lung cancer). More on the design: method as in earlier work. The following applies: cited from earlier work.
The subject of data set [10] is NCI-H226 (NSC lung cancer). More on the design: method as in earlier work. The following applies: cited from earlier work.
Data set [11] relates to MDA-MB-31/ATCC (Breast cancer). More on the design: method as in earlier work. Conditions: cited from earlier work.
For another data set, the system named is SNB-75 (CNS cancer). More on the design: method as in earlier work. Conditions: cited from earlier work.
In data set [12] the test system is CAKI-1 (Renal cancer). More on the design: method as in earlier work. Conditions: cited from earlier work.
The next data set deals with RPMI-8226 (Leukemia). More on the design: method as in earlier work. Conditions: cited from earlier work.
The next data set has as its system HOP-92 (NSC lung cancer). More on the design: method as in earlier work. The following applies: cited from earlier work.
For the next data set, the system named is MDA-MB-435 (Melanoma). More on the design: method as in earlier work. Conditions: cited from earlier work.
Data set [13] has as its system NCI-H23 (NSC lung cancer). More on the design: method as in earlier work. The following applies: cited from earlier work.
Another data set has as its system OVCAR-3 (Ovarian cancer). More on the design: method as in earlier work. Conditions: cited from earlier work.
For the next data set, the system named is HOP-62 (NSC lung cancer). More on the design: method as in earlier work. Conditions: cited from earlier work.
Another data set has as its system MCF7 (Breast cancer). More on the design: method as in earlier work. The following applies: cited from earlier work.
For data set [14], the system named is CAKI-1 (Renal cancer). The data set is described as follows: NCI-60 screen (SRB, 48 h). The following applies: CAKI-1, 1 dose 10 µM.

Each structure is given as a SMILES string. Read-outs that look alike come from different tables or passages of the source.

For `CC(=O)[C@@H]1CC[C@]2(CO)CC[C@]3(C)[C@H](CC[C@@H]4[C@@]5(C)CCCNC(C)(C)[C@@H]5CC[C@]43C)[C@@H]12` [Compound 2, azepanomessagenin], the EC50 amounted to 7.71 ± 0.4 µM in data set [1]; 6.21 ± 1.2 µM in data set [2]; 5.78 ± 0.7 µM in the data set with MCF-7 (breast carcinoma); 7.82 ± 0.3 µM in data set [3]; 7.92 µM in [3] (Homo sapiens, A-375, 72 h); 6.32 ± 0.4 µM in data set [4]. Further, the 50% effective concentration (EC50) in data set [5] worked out at 8.03 ± 1.4 µM. Further, the “Growth % of the Most Sensitive Cell Lines” value (“Growth %” for short) with HT29 (Colon cancer) is reported as 68.07%. The “Positive Cytostatic Effect (cell lines with percent growth 0 to 50 / total)” value in [6] is 0/59. Moreover, in [6], the “number of cancer cell lines the compound was active against” value (“number” for short) was “did not show antiproliferative activity”. Also, the activity at 10 µM in data set [6] (read-out: Mean Growth, %) is 99.2%; in [6] (read-out: Range of Growth, %), 68.1 to 136%.
For the molecule `CC1(C)NCCC[C@]2(C)[C@H]3CC=C4[C@@H]5C[C@@](C)(CO)CC[C@]5(C)CC[C@@]4(C)[C@]3(C)CC[C@@H]12` [Compound 5, azepano-glycyrretol], the concentration giving a half-maximal response (EC50) in data set [1] is 6.36 ± 0.6 µM; in [2] it was 4.81 ± 0.9 µM; in the data set on MCF-7 (breast carcinoma), 5.68 ± 0.5 µM; in [3] (Homo sapiens, A-375, 72 h) it was 5.69 ± 0.4 µM; in data set [4], 3.97 ± 0.4 µM; in data set [5], 7.43 ± 1.2 µM. Besides, the “Growth %” value is listed as −1.30% with SR (Leukemia) and −4.98% in the data set on COLO 205 (Colon cancer). Also, in data set [6], the “Positive Cytostatic Effect (cell lines with percent growth 0 to 50 / total)” value is 13/58. Besides, the “Positive Cytotoxic Effect (cell lines with percent growth < 0 / total)” value in [6] is recorded as 2/58. In addition, the “number” value in [6] was 8 cell lines. Also, the activity at 10 µM in data set [6] (read-out: Mean Growth, %) was 56.2%; in data set [6] (read-out: Range of Growth, %), -4.98 to 98.9%.
Consider `O=c1[nH]cc(F)c(=O)[nH]1` [Compound 5-FU, 5-fluorouracil], for which the GI50 in the data set on HCC-2998 (Colon cancer) is 0.05 µM; with MALME-3M (Melanoma) it was 0.05 µM; in [7], 0.05 µM; in the data set on SF-539 (CNS cancer), 0.06 µM; in [8], 6.97 µM; in [9], 7.27 µM. Further, the 50% growth inhibitory concentration (GI50) in data set [10] is 54.7 µM; in data set [11], 6.6 µM; in the data set on SNB-75 (CNS cancer), 78.7 µM; with CAKI-1 (Renal cancer) [12], 0.07 µM; with RPMI-8226 (Leukemia), 0.04 µM; in the data set on HOP-92 (NSC lung cancer), 77.9 µM. The GI50 was 0.07 µM in the data set with MDA-MB-435 (Melanoma); 0.33 µM in data set [13]; 0.01 µM in the data set on OVCAR-3 (Ovarian cancer); 0.39 µM in the data set on HOP-62 (NSC lung cancer); 0.07 µM in the data set on MCF7 (Breast cancer).
With `C=C(C)[C@@H]1CC[C@]2(C(=O)NC3CCCCC3)CC[C@]3(C)[C@H](CC[C@@H]4[C@@]5(C)CCCNC(C)(C)[C@@H]5CC[C@]43C)[C@@H]12` [Compound 10], the EC50 worked out at 2.27 ± 0.4 µM in data set [1]; 2.04 ± 0.1 µM in [2]; 1.9 ± 0.1 µM in the data set with MCF-7 (breast carcinoma); 2.18 ± 0.2 µM in [3] (Homo sapiens, A-375, 72 h); 0.98 ± 0.1 µM in data set [4]; 1.5 ± 0.2 µM in data set [5].
For the molecule `CC1(C)CC[C@]2(C(=O)NC(CO)Cc3ccccc3)CC[C@]3(C)C(=CC[C@@H]4[C@@]5(C)CCCNC(C)(C)[C@@H]5CC[C@]43C)[C@@H]2C1` (stereo partly drawn) [Compound 13], the concentration giving a half-maximal response (EC50) worked out at 4.15 ± 0.2 µM in data set [1]; 3.79 ± 0.3 µM in data set [2]; 2.82 ± 0.3 µM in the data set with MCF-7 (breast carcinoma); 3.08 ± 0.1 µM in data set [3] (Homo sapiens, A-375, 72 h); 2.07 ± 0.1 µM in [4]; 3.08 ± 0.3 µM in data set [5]. The “Growth %” value in the data set with SR (Leukemia) is −5.95%. Further, the “Positive Cytostatic Effect (cell lines with percent growth 0 to 50 / total)” value in data set [6] is 10/60. In addition, the “Positive Cytotoxic Effect (cell lines with percent growth < 0 / total)” value in [6] is listed as 1/60. Further, the “number” value in [6] is 6 cell lines. Also, the activity at 10 µM was 74.9% in data set [6] (read-out: Mean Growth, %) and -5.95 to 107% in [6] (read-out: Range of Growth, %).
In the case of `CC1(C)NCCC[C@]2(C)[C@H]3CC(=O)[C@H]4[C@@H]5C[C@@](C)(CO)CC[C@]5(C)CC[C@@]4(C)[C@]3(C)CC[C@@H]12` [Compound 17], the concentration giving a half-maximal response (EC50) in data set [1] turned out to be 9.19 ± 0.5 µM; in [2], 6.36 ± 1.8 µM; in the data set with MCF-7 (breast carcinoma), 5.55 ± 0.6 µM; in data set [3] (Homo sapiens, A-375, 72 h) it was 6.35 ± 0.5 µM; in data set [4], 5.01 ± 0.8 µM; in data set [5], 9.87 ± 1.3 µM. In the data set on CAKI-1 (Renal cancer) [14], the “Growth %” value is on record as 51.57%. Moreover, the “Positive Cytostatic Effect (cell lines with percent growth 0 to 50 / total)” value in [6] is on record as 0/59. Further, in data set [6], the “Positive Cytotoxic Effect (cell lines with percent growth < 0 / total)” value is on record as 0/59. Further, in data set [6], the “number” value is “complete loss of cytotoxic activity”. For the same molecule, the activity at 10 µM was 95.5% in [6] (read-out: Mean Growth, %) and 51.6 to 118% in data set [6] (read-out: Range of Growth, %).
For the molecule `C=C(C)[C@@H]1CC[C@]2(C)[C@H](CC=C3[C@@H]4CC(C)(C)CC[C@]4(CO)CC[C@]32C)[C@@]1(C)CCCN` [Compound 18], the EC50 in [1] amounted to 4 ± 0.2 µM; in [2] it was 3.34 ± 0.3 µM; in the data set on MCF-7 (breast carcinoma), 2.65 ± 0.2 µM; in data set [3] (Homo sapiens, A-375, 72 h), 3.38 ± 0.2 µM; in [4] it was 1.72 ± 0.2 µM; in [5] it was 4.02 ± 0.7 µM.
